Laboratory results from patent publication US20090098050A1, “CALCIUM BINDING PEPTIDES” (THE REGENTS OF THE UNVERSITY OF CALIFORNIA, priority 2005, published 2009).

Tests used:
[1] = Remineralization of demineralized rat femur (SEM); conditions: peptide one hour, then Quell Desensitizer
Description: FIG. 7: Mineralization of bone. Rat femurs were obtained from sacrificed animals under a shared tissue protocol. Samples were demineralized, rinsed, and ultrasonicated to remove debris. Test samples were treated with 8DSS peptide for one hour, rinsed, remineralized using Quell Desensitizer as described in Example 8, then imaged by Scanning Electron Microscopy. SEM images are shown. Top: untreated sample, showing the surface of the bone completely covered by mineral. Center: demineralized sample, showing Haversian canals exposed by removal of the mineral layer. Bottom: Bone treated with 8DSS and Quell Desensitizer (an aqueous CaCl2/K2HPO4 solution), showing reestablishment of the mineral layer.
In order to determine whether the remineralization results observed for tooth tissues can be extended to bone, rat femurs were obtained from sacrificed animals under a shared tissue protocol. Test samples were demineralized with 19% EDTA gel for one hour, followed by immersion in deionized water and ultrasonication to remove excess debris. Test samples were then treated with 8DSS peptide for one hour, rinsed, and half of the samples were remineralized using Quell Desensitizer (Pentron Clinical Technologies, LLC) as described in Example 5. All samples were then prepared for SEM and imaged as in Example 5. […] In the demineralized sample, the Haversian canals were clearly exposed (FIG. 7, middle panel). […]

[2] = Tissue specific binding of DSS peptides and variants in human teeth (CLSM); conditions: 12.5 μM labeled peptide
Description: FIG. 8: Fluorescence micrographs showing tissue specificity in the binding of DSS peptides and variants. Adult human teeth were exposed to 12.5 μM 5(6)-carboxyfluorescein-labeled peptide without demineralization, washed extensively, and imaged by CLSM. For each section, multiple scans were collected and assembled in an automated mode to generate panels of images representing an area of 13×13 mm, sufficient in most cases to encompass the whole section. The peptides used for each section are labeled beneath each panel, and within each panel the tooth is oriented with the root toward the top of the image and the crown toward the bottom. Tissue layers are labeled as follows: RTD=Root Tip Dentin; CPD=Circumpulpal Dentin; MD=Mantle Dentin; P=Pulp Cavity Wall; DEJ=Dentin-Enamel Junction; E=Enamel; BE=Basal Enamel; CE=Cortical Enamel; CL=Carious Lesion; PB=Periodontal Bone.
In order to investigate the tissue specificity of DSS peptide binding to tooth tissue, sections of human teeth were exposed to DSS peptides and variants, then imaged by CLSM as described in Example 2. The peptides utilized for these experiments were 8DSS, 8ASS, 8DAA, 8NAA, 4DSS, 4ESS, 4NSS, 4DTT, 4ETT, 4NTT, and 6DSS. Sagittal sections of human teeth extracted during normal clinical practice were polished and then incubated for ten minutes in a solution of the appropriate 5(6) carboxyfluorescein-labeled peptide (12.5 μM) containing 10 mM NaCl and 50 mM HEPES, pH 7.0. Control samples were prepared without peptide. Samples were washed extensively after treatment and imaged by CLSM using blue laser illumination (λ=488 nm) and a FITC emission filter, with identical camera and microscope settings for each sample. For each section, multiple scans were collected and assembled in an automated mode to generate panels of images representing an area of 13×13 mm, sufficient in most cases to encompass the whole section. […] Significant binding was also seen to the edges of the pulp cavity.

[3] = Accumulation of calcium phosphate by immobilized peptide on streptavidin beads; conditions: biotin-conjugated peptide on beads, PBS+1 mM CaCl2+1 mM NaHPO4, twelve days
Description: FIG. 3: Interaction of immobilized 8DSS peptide with CaHPO4. Streptavidin-coated polystyrene beads were incubated with biotin-conjugated 8DSS (A and C) or unconjugated biotin (B) and (D). Beads were washed and incubated in a solution of PBS+1 mM CaCl2+1 mM NaHPO4 for twelve days prior to imaging. A. Brightfield micrographs of aggregates of amorphous calcium phosphate that accumulated around DSS-coated beads. All calcium phosphate aggregates of significant size were associated with one or more beads. B. Brightfield image of representative biotin-blocked beads (no DSS peptide). No significant amount of precipitate was associated with these beads. C. Phase-contrast micrograph of a DSS-coated bead with a more ordered accretion of calcium phosphate around its exterior (note the spherical center of the object). These objects were not seen in control samples (biotin-blocked, no DSS peptide), as illustrated in (D). Scale Bars=4 μm. Streptavidin-coated polystyrene beads with an average diameter of 4 μm (Spherotech P.L.C.) were incubated with either biotin-conjugated 8DSS peptide or unconjugated biotin. Beads were washed with PBS to remove unbound peptide (or unbound biotin, in the case of the control beads) and incubated in a solution of PBS+1 mM CaCl2+1 mM NaHPO4 for twelve days prior to imaging. […] All calcium phosphate aggregates of significant size were associated with one or more beads. […]

8DSS: peptide containing eight Asp-Ser-Ser (DSS) repeats, SEQ ID NO:15 (DSSDSSDSSDSSDSSDSSDSSDSS; calcium binding peptide containing eight DSS repeats, 8DSS)
Remineralization of demineralized bone surface [1]: the mineral surface was restored and occlusion of the canals was observed | Tissue binding pattern in healthy tooth section ([2]; nondemineralized teeth): bound primarily to the mantle dentin | Level of binding (staining) to tooth surfaces ([2]; ten minutes, identical settings): greatest levels of staining | Calcium phosphate accumulation around peptide-coated beads [3]: incorporated into large aggregates of precipitated amorphous calcium phosphate
